PMC7766758, “Furan-Conjugated Tripeptides as Potent Antitumor Drugs” (Biomolecules, 2020)
≈ marks a conversion by molar mass, not a printed value. Entries after “also recorded” stand apart in the source; their conditions may differ. Like-named read-outs stand apart in the source and are kept apart here. One block for each compound: values may come before it. Square brackets hold non-standard residues; d marks the D form. Side chains are listed from the residue outwards. Peptide text beside a SMILES is read from it. * marks the point of attachment. 2Nal = N[C@@H](Cc1ccc2ccccc2c1)C(=O)O; 2Furoyl = O=C(c1ccco1)*

Key:
[1] = tested on: human cervical cancer cells HeLa; assay: Anti-proliferative assay (MTT or resazurin), HeLa; format: cell-based; details: for IC50 ± SD (µg/mL), proliferation of HeLa cells / IC50: 48 h
Description: The anti-proliferative effect of peptides was tested using various normal and cancer cells. Human cancer cells used were human cervical cancer cells HeLa (ATCC® CCL-2), and human breast cancer cells MCF-7 (ATCC® HTB22) and MDA-MB-231 (ATCC® HTB-26). Normal cells used were NIH-3T3 (ATCC® CRL-1658), human normal endothelial cells (human umbilical vein endothelial cells, HUVEC) (ECACC, Sigma-Aldrich, Lyon, France), and human lung fibroblasts IMR-90 (ATCC® CCL186). NIH-3T3, HeLa, IMR-90, MDA-MB-231, and MCF-7 cells were grown in DMEM supplemented with 10% fetal bovine serum (FBS), 1% L-glutamine, and 1% antibiotics (all from Invitrogen (Carlsbad, CA, USA)). HUVEC cells were cultured in specific medium (endothelial cell growth medium from Sigma Aldrich, Lyon, France). Cells were routinely grown on 25 cm^2 flasks. For anti-proliferative assay, cells were detached from flasks using a trypsin-EDTA solution (from Thermofisher, Illkirch-Graffenstaden, France). After counting using a Malassez chamber, cells were diluted in appropriate culture media and seeded into 96-well cell culture plates (Greiner bio-one, Paris, France) at approximately 6000 cells/well. Cells were then treated with increasing concentration of conjugates diluted in appropriate medium. Doxorubicin was used as positive control. After 48 h medium was aspirated and the number of viable cells was colorimetrically measured as previously described. Briefly, after exposure to increasing concentrations of conjugates or doxorubicin for 48 h, cell viability was measured using the standard MTT or resazurin assay. For the MTT assay, the supernatant was discarded and 50 µL of 0.5 mg/mL MTT dye was then added to each well and plates were further incubated for 4 h at 37 °C. The MTT was aspirated and 100 µL of DMSO was then added to each well. The extent of MTT reduction to formazan in cells was calculated by measuring the absorbance at 540 nm, using a spectrophotometer (Spectra Max plus, Molecular Devices, CA, USA). For the resazurin assay, the supernatant was discarded and 100 µL of resazurin solution (from Sigma Aldrich, Lyon, France) was added to each well. After 4 h of incubation at 37 °C, fluorescence associated to resazurin biotransformation by live cells was measured using spectrofluorometer (excitation 530 nm/emission 590 nm). In both cases, the antiproliferative activity was recorded as concentration causing 50% growth inhibition (IC50). Experiment was performed in triplicate (n = 3).

HeLa cells [2] = assay: Atomic force microscopy of HeLa cells; format: cell-based, human; details: 20 µg/mL, 24 h
Description: HeLa cells were grown in Dulbecco’s modified eagle medium (DMEM) supplemented with 10% fetal bovine serum. After 70–80% confluency was achieved, cells were treated with conjugate 4 at 20 µg/mL and incubated for 24 h at 37 °C in a 5% CO2 incubator. The next day, these cells were visualized using a microscope. In the untreated control, cells were healthy and attached, therefore, the cells were trypsinized to detach the cells from the wells, and then collected in a sterile Eppendorf tube. In conjugate 4 treated wells, cells were dead and detached. These dead cells were freely floating and therefore the cells were collected without using the trypsinization process in an Eppendorf tube. These cells collected in Eppendorf tubes were washed twice with sterile distilled water and then 10 µL of suspension was deposited into mica chips coated with 0.01% poly-L-lysine, to allow the cells attachment. This cell suspension was then dried at room temperature. Soon after, these mica chips were inserted inside an Agilent Technologies 5500 microscope and the chips were scanned at tapping mode with a silicon nitride cantilever. After finding cells in the chips, these cells were further scanned under a higher magnification. Atomic force microscopy (AFM) topography images were obtained, and we processed them in pseudo color images to differentiate the images according to the height. […]

[3] = tested on: HUVEC (human umbilical vein endothelial cells)
Description: (§1) The anti-proliferative effect of peptides was tested using various normal and cancer cells. […] Normal cells used were NIH-3T3 (ATCC® CRL-1658), human normal endothelial cells (human umbilical vein endothelial cells, HUVEC) (ECACC, Sigma-Aldrich, Lyon, France), and human lung fibroblasts IMR-90 (ATCC® CCL186). NIH-3T3, HeLa, IMR-90, MDA-MB-231, and MCF-7 cells were grown in DMEM supplemented with 10% fetal bovine serum (FBS), 1% L-glutamine, and 1% antibiotics (all from Invitrogen (Carlsbad, CA, USA)). HUVEC cells were cultured in specific medium (endothelial cell growth medium from Sigma Aldrich, Lyon, France). Cells were routinely grown on 25 cm^2 flasks. For anti-proliferative assay, cells were detached from flasks using a trypsin-EDTA solution (from Thermofisher, Illkirch-Graffenstaden, France). After counting using a Malassez chamber, cells were diluted in appropriate culture media and seeded into 96-well cell culture plates (Greiner bio-one, Paris, France) at approximately 6000 cells/well. Cells were then treated with increasing concentration of conjugates diluted in appropriate medium. Doxorubicin was used as positive control. […] Briefly, after exposure to increasing concentrations of conjugates or doxorubicin for 48 h, cell viability was measured using the standard MTT or resazurin assay. For the MTT assay, the supernatant was discarded and 50 µL of 0.5 mg/mL MTT dye was then added to each well and plates were further incubated for 4 h at 37 °C. The MTT was aspirated and 100 µL of DMSO was then added to each well. The extent of MTT reduction to formazan in cells was calculated by measuring the absorbance at 540 nm, using a spectrophotometer (Spectra Max plus, Molecular Devices, CA, USA). For the resazurin assay, the supernatant was discarded and 100 µL of resazurin solution (from Sigma Aldrich, Lyon, France) was added to each well. After 4 h of incubation at 37 °C, fluorescence associated to resazurin biotransformation by live cells was measured using spectrofluorometer (excitation 530 nm/emission 590 nm). […]

[4] = tested on: human breast cancer cells MDA-MB-231; assay: Anti-proliferative assay, MDA-MB-231; format: cell-based
Description: Cells were routinely grown on 25 cm^2 flasks. […] Doxorubicin was used as positive control. […] Experiment was performed in triplicate (n = 3).

HeLa cells [5] = assay: Rhodamine 123 and propidium iodide staining assay; format: cell-based, human
Description: As mentioned above, HeLa cells were grown in DMEM medium and seeded 3000 cells/well into 96-well plates. A stock solution of rhodamine 123 (Sigma-Aldrich, St Louis, MO, USA) and prodidium iodide (Sigma-Aldrich, St Louis, MO, USA) at concentrations of 10 and 1 mg/mL were prepared in pure DMSO and water, respectively.
The next day, 1 mL of the fresh media with 2% FBS was made, in which rhodamine 123 and propidium iodide dyes were added to make final concentrations of 10 and 5 µg/mL, respectively. Compounds 4, 4a, and 4b at four different concentrations (10, 20, 30, and 40 µg/mL) were mixed with 1 mL of this media. Old media from the plates were aspirated from each well and 200 µL of fresh media containing compounds, rhodamine 123, and PI dye were added in their respective wells in triplicate and incubated at 37 °C in a 5% CO2 incubator. After 1 and 2 h incubation, media was aspirated from the wells and washed with PBS. These cells were visualized for rhodamine 123 and PI dye staining in a Nikon Eclipse TE2000-U fluorescence microscope at 200× magnification in FITC and TXR filters respectively. Images of cells at the same location for both dyes were captured. Rhodamine 123 and PI staining give green and red fluorescence, respectively. These two different colored images were then merged with one another using ImageJ software (NIH, Bethesda, MD, USA).

[6] = tested on: human breast cancer cells MCF-7
Description: as §1

[7] = tested on: mice normal 3T3 fibroblasts cells
Description: as §1

[8] = tested on: IMR-90 (normal human fibroblasts)
Description: as §1

[9] = tested on: HUVEC (human umbilical vein endothelial cells); assay: cells; details: 48 h, read-out: IC50 (µg/mL) HUVEC
Description: as §1

[10] = tested on: human breast cancer cells MCF-7; assay: cells; details: MCF7, 48 h, read-out: IC50 (µg/mL) MCF-7
Description: as §1

[11] = tested on: mice normal 3T3 fibroblasts cells; assay: cells; details: Mus musculus, Fibroblast, 48 h, read-out: IC50 (µg/mL) 3T3
Description: as §1

[12] = tested on: IMR-90 (normal human fibroblasts); assay: cells; details: IMR-90, 48 h, read-out: IC50 (µg/mL) IMR-90
Description: as §1

[13] = HeLa cells, MTT or resazurin, triplicate
[14] = HeLa cells, MTT or resazurin, read-out: IC50 ± SD (µM), proliferation of HeLa cells

IC50 ± SD (µg/mL), proliferation of HeLa cells [1, 13]: 4.40 ± 0.20 µg/mL
IC50 [1, 14]: 8.35 ± 0.37 µM
SMILES: C[C@H](NC(=O)[C@H](Cc1ccccc1)NC(=O)[C@H](Cc1ccc2ccccc2c1)NC(=O)c1ccco1)C(N)=O [Conjugate 2, 2-Fur^4-L-2-Nal^3-L-Phe^2-L-Ala^1-CONH2]

IC50 ± SD (µg/mL), proliferation of HeLa cells [1, 13]: 21.1 ± 0.60 µg/mL
IC50 [1, 14]: 46.8 ± 1.33 µM
SMILES: C[C@H](NC(=O)[C@H](C)NC(=O)[C@H](Cc1ccc2ccccc2c1)NC(=O)c1ccco1)C(N)=O [Conjugate 3, 2-Fur^4-L-2-Nal^3-L-Ala^2-L-Ala^1-CONH2]

SMILES: C[C@H](NC(=O)[C@H](Cc1ccc2ccccc2c1)NC(=O)c1ccco1)C(=O)N[C@@H](Cc1ccccc1)C(N)=O [Conjugate 4, 2-Fur^4-L-2-Nal^3-L-Ala^2-L-Phe^1-CONH2]
effect on HeLa cell membrane seen by AFM (HeLa cells [2]): membranolytic effect; also recorded: membranolytic affect
antiproliferative activity on HUVEC (in words) [3]: did not inhibit the proliferation
IC50 (µg/mL) HUVEC ([3]; 48 h, mean ± SD of triplicates): >100 µg/mL
antiproliferative activity on MDA-MB-231 (in words) [4]: did not inhibit the proliferation
IC50 (µg/mL) MDA-MB-231 ([4]; MDA-MB-231, 48 h, mean ± SD of triplicates): >100 µg/mL
antiproliferative activity on MDA-MB-231 (in words) ([4]; listed as conjugate 4): inactive; also recorded: no effect
IC50 [1]: 0.28 ± 0.09 µM
IC50 ± SD (µg/mL), proliferation of HeLa cells [1]: 0.15 ± 0.05 µg/mL
rhodamine 123 fluorescence (mitochondrial membrane potential, MMP) (HeLa cells [5]; HeLa, 40 µg/mL, 1 or 2 h treatment): loss of mitochondrial membrane potential; also recorded: totally suppressed rhodamine fluorescence
PI dye fluorescence (membrane permeabilization) (HeLa cells [5]; HeLa, 20, 30 and 40 µg/mL, 1 or 2 h): increased
antiproliferative activity on MCF-7 (in words) ([6]; MCF-7): did not inhibit the proliferation
IC50 (µg/mL) MCF-7 ([6]; MCF-7, 48 h, mean ± SD of triplicates): >100 µg/mL
antiproliferative activity on 3T3 cells (in words) ([7]; 3T3): did not inhibit the proliferation
IC50 (µg/mL) 3T3 ([7]; 3T3, 48 h, mean ± SD of triplicates): >100 µg/mL
antiproliferative activity on IMR-90 (in words) ([8]; IMR-90): did not inhibit the proliferation
IC50 (µg/mL) IMR-90 ([8]; IMR-90, 48 h, mean ± SD of triplicates): >100 µg/mL

IC50 ± SD (µg/mL), proliferation of HeLa cells [1, 13]: > 100 µg/mL
SMILES: C[C@H](NC(=O)[C@H](Cc1ccc2ccccc2c1)NC(=O)c1ccco1)C(=O)N[C@@H](Cc1ccccc1)C(=O)NCCCC[C@H](NC(=O)[C@H](Cc1ccccc1)NC(=O)[C@H](C)NC(=O)[C@H](Cc1ccc2ccccc2c1)NC(=O)c1ccco1)C(N)=O [Conjugate 4b] (2Furoyl-[2Nal]AFK([Phe-Ala-2Nal-2Furoyl])-NH2)
antiproliferative activity against HeLa cells (in words) ([1]; HeLa cells): inactive
effect on MMP or membrane integrity of HeLa cells (rhodamine 123 / PI) (HeLa cells [5]; HeLa, data not shown): do not affect MMP or the membrane integrity

IC50 ± SD (µg/mL), proliferation of HeLa cells [1, 13]: 2.59 ± 0.30 µg/mL
IC50 [1, 14]: 4.49 ± 0.52 µM
SMILES: C[C@H](NC(=O)[C@H](Cc1ccc2ccccc2c1)NC(=O)[C@H](Cc1ccc2ccccc2c1)NC(=O)c1ccco1)C(N)=O [Conjugate 5, 2-Fur^4-L-2-Nal^3-L-2-Nal^2-L-Ala^1-CONH2]

IC50 ± SD (µg/mL), proliferation of HeLa cells [1, 13]: 10.4 ± 0.10 µg/mL
IC50 [1, 14]: 19.74 ± 0.18 µM
SMILES: C[C@H](NC(=O)[C@H](Cc1ccc2ccccc2c1)NC(=O)[C@H](Cc1ccccc1)NC(=O)c1ccco1)C(N)=O [Conjugate 6, 2-Fur^4-L-Phe^3-L-2-Nal^2-L-Ala^1-CONH2]

IC50 ± SD (µg/mL), proliferation of HeLa cells [1, 13]: >100 µg/mL
IC50 [1, 14]: > 100 µM
SMILES: C[C@H](NC(=O)c1ccco1)C(=O)N[C@@H](Cc1ccc2ccccc2c1)C(=O)N[C@@H](Cc1ccccc1)C(N)=O [Conjugate 7, 2-Fur^4-L-Ala^3-L-2-Nal^2-L-Phe^1-CONH2]

IC50 ± SD (µg/mL), proliferation of HeLa cells [1, 13]: 29.1 ± 2.8 µg/mL
IC50 [1, 14]: 55.3 ± 5.31 µM
SMILES: C[C@H](NC(=O)c1ccco1)C(=O)N[C@@H](Cc1ccccc1)C(=O)N[C@@H](Cc1ccc2ccccc2c1)C(N)=O [Conjugate 8, 2-Fur^4-L-Ala^3-L-Phe^2-L-2-Nal^1-CONH2]

IC50 ± SD (µg/mL), proliferation of HeLa cells [1, 13]: 19.2 ± 3.2 µg/mL
IC50 [1, 14]: 35.4 ± 5.89 µM
SMILES: C[C@H](NC(=O)[C@H](Cc1ccc(O)cc1)NC(=O)[C@H](Cc1ccc2ccccc2c1)NC(=O)c1ccco1)C(N)=O [Conjugate 9, 2-Fur^4-L-2-Nal^3-L-Tyr^2-L-Ala^1-CONH2]

IC50 ± SD (µg/mL), proliferation of HeLa cells [1, 13]: 4.70 ± 0.60 µg/mL
IC50 [1, 14]: 9.16 ± 1.17 µM
SMILES: C[C@H](NC(=O)[C@@H](NC(=O)[C@H](Cc1ccc2ccccc2c1)NC(=O)c1ccco1)c1ccccc1)C(N)=O [Conjugate 10, 2-Fur^4-L-2-Nal^3-L-Phg^2-L-Ala^1-CONH2]

SMILES: COc1cccc2c1C(=O)c1c(O)c3c(c(O)c1C2=O)C[C@@](O)(C(=O)CO)C[C@@H]3O[C@H]1C[C@H](N)[C@H](O)[C@H](C)O1 [Doxorubicin]
IC50 [9]: 0.02 ± 0.005 µg/mL (≈ 0.0368 µM)
IC50 [10]: 0.01 ± 0.005 µg/mL (≈ 0.0184 µM)
IC50 [11]: < 1 µg/mL
IC50 ([4]; Homo sapiens, MDA-MB-231, 48 h, mean ± SD of triplicates): 0.21 ± 0.03 µg/mL (≈ 0.386 µM)
IC50 ([1]; Homo sapiens, HeLa cells, MTT or resazurin, triplicate, read-out: IC50 ± SD (µg/mL), proliferation of HeLa cells): 3.09 ± 0.16 µg/mL
IC50 [12]: 0.06 ± 0.01 µg/mL (≈ 0.11 µM)
